The nature of series [1]: Dissolution of rutin (auxiliary effects of L-arginine hydrochloride and L-cysteine); solubility in water. The class given is physicochemical. The settings on record: aqueous with cosolvent or surfactant or cyclodextrin; solution with 4 mmol L-arginine hydrochloride, 1 mmol L-cysteine, 8 mmol 1 N NaOH, adjusted to pH 8.5, precipitate removed. Here is the method:
To the solution B, is added 3.5 mL of the solution A. After adjusting the pH of the mixture to 8.5 with HCl, the mixture is filtered to give an injectable.

Another series relates to MRSA infected mouse. Nature of the series: Antibacterial activity on MRSA infected mouse (survival rate after 5 days). The series is classed as in vivo. Conditions: rutin alone. As for the experimental part: MRSA was incubated with Brain-Heart Infusion medium at 37° C. for 18 hours, and then the bacteria were collected and washed, followed by resuspension in saline. The suspension was admixed in an aqueous 5% gastric mucin solution and the concentration was adjusted to a predetermined value. Then, 0.2 mL of the mixture was intraperitoneally administered to an ICR strain SPF mouse. At one hour after the infection, various concentrations of β-lactam agents and rutin (0.2 mL) was subcutaneously administered, and survival rate was analyzed after 5 days and thus the effectiveness was evaluated. In addition, the effectiveness by oral administration (0.2 mL) was evaluated and various concentrations of β-lactam agents and rutin (0.2 mL) were administered using a gastric probe 1 hour or 5 hours prior to the infection.

The results in this text go back to patent publication US20040229825A1, “Pharmaceutical composition for treatment of infection with drug resistant bacterium and disinfectant” (priority 2003, published 2004).

Values after ≈ are worked out from the molar mass of the structure shown.

`C[C@@H]1O[C@@H](OC[C@H]2O[C@@H](Oc3c(-c4ccc(O)c(O)c4)oc4cc(O)cc(O)c4c3=O)[C@H](O)[C@@H](O)[C@@H]2O)[C@H](O)[C@H](O)[C@H]1O` [rutin] returned a solubility in series [1] of 49.8 mg/mL (≈ 81.6 mM). Moreover, the survival rate with MRSA infected mouse (oral, 1 mg/mouse) is 20%; in the series on MRSA infected mouse (oral, 5 mg/mouse) it was 20%; in the series with MRSA infected mouse (oral, 10 mg/mouse) it was 20%; in the series with MRSA infected mouse (oral, 15 mg/mouse) it was 40%; in the series with MRSA infected mouse (subcutaneous, 1 mg/mouse) it was 40%; with MRSA infected mouse (subcutaneous, 5 mg/mouse), 40%. The survival rate with MRSA infected mouse (subcutaneous, 10 mg/mouse) came out at 20%; in the series with MRSA infected mouse (subcutaneous, 15 mg/mouse), 40%.
